Patent publication US20050154035A1, “Methods of using zonisamide as an adjunctive therapy for partial seizures” (Eisai Co., Ltd., priority 2004, published 2005)

Tests used:
[1] = Pharmacovigilance review of rhabdomyolysis / CPK elevation in zonisamide-treated patients (U.S. and Japan); conditions: human, in vivo
Text: The pharmacovigilance data that were collected, reviewed and analyzed provided the following information in respect of the incidence of rhabdomyolysis/CPK elevation in the zonisamide-treated patient population. To date, a total of 10 cases fulfill the criteria of potential rhabdomyolysis cases. These 10 cases were reviewed in detail for evaluation of possible safety signals. All 10 cases fulfill serious criteria. Of these 10 cases, seven (7) cases were reported as rhabdomyolysis and three (3) cases were reported as CPK increase.
Of the seven (7) rhabdomyolysis cases, six (6) are verbatim cases from Dainippon and one (1) originates in the U.S. Of the seven (7) cases, three (3) were pediatric cases and four (4) were adult cases.
Of the seven (7) rhabdomyolysis cases, two (2) cases have strong confounding factors, but the possibility of zonisamide involvement cannot be completely excluded. Two (2) cases have moderate confounding factors, and zonisamide involvement may be possible.
Of the three (3) cases of CPK increase, one (1) is a verbatim report from Dainippon, and two (2) originated from the U.S. Of the three (3) cases, two are pediatric patients and one is an adult. Of these three (3) cases, two (2) recovered and the outcome of the third is unknown.
Of the three (3) cases of CPK increase, one (1) case has strong confounding factors, but the possibility of zonisamide involvement cannot be completely excluded. One (1) case has weak confounding factors, and zonisamide involvement may be possible.
Estimates of zonisamide exposure, based upon retail and mail order prescriptions, indicate that the number of unique patients taking zonisamide capsules in the U.S. is about 37,276 (total prescriptions per year/average number of prescriptions per patient per year less a calculated percentage decrease based on estimated annual dropouts) in the time between approval in 2000 and December 2002. Hospital patient data for that period, however, is not available and is not reflected in the estimates. Estimates of patient exposure for Japan indicate that the number of unique patients taking zonisamide is about 1,185,177 for time beginning with the approval in Japan through December 2002. Japanese data includes prescription and hospital patient data. Exposure from clinical trials are not included in the U.S. or Japanese exposure estimates. Based on these statistics, the estimated number of patients exposed to zonisamide in the U.S. and Japan is 1,222,453 unique patients. This is a rather conservative estimate, assuring that the number of patients actually exposed to zonisamide is unlikely to be higher than the estimate provided. Similarly, the incidences of rhabdomyolysis estimated herein are unlikely to be higher than calculated. […]

T-type Ca^2+ currents = conditions: in vitro; cited from earlier work
[2] = tested on: GABA/benzodiazepine receptor ionophore complex; conditions: in vitro, cited from earlier work
[3] = tested on: cultured mouse spinal cord neurons; conditions: 10-30 μg/mL, cited from earlier work
rat hippocampal slices = conditions: 10-30 μg/mL; cited from earlier work
[4] = tested on: dopaminergic and serotonergic neurotransmission; conditions: in vivo microdialysis; cited from earlier work
[5] = in vivo; cited from earlier work

For `NS(=O)(=O)Cc1noc2ccccc12` [zonisamide, 1,2-benzisoxazole-3-methanesulfonamide], the “CPK increase cases with no or only weak confounding factors” value [1] was 2 cases, the “rhabdomyolysis cases with no or only weak confounding factors” value [1] was 3 cases and the “time from initiation of zonisamide treatment to development of CPK increase” value [1] was “two (2) days and six (6) weeks”. For the same compound, the “time from initiation of zonisamide treatment to development of rhabdomyolysis” value [1] was “two (2) weeks and nine (9) years”, the “effect on voltage-dependent, transient inward currents (T-type Ca2+ currents)” value (T-type Ca^2+ currents) was “reduces voltage-dependent, transient inward currents” and the “binding to the GABA/benzodiazepine receptor ionophore complex” value ([2]; allosteric fashion) was “binds to the GABA/benzodiazepine receptor ionophore complex”. The “effect on chloride flux” value [2] was “does not produce changes in chloride flux”, the “effect on synaptically-driven electrical activity” value [3] was “suppresses synaptically-driven electrical activity” and the “effect on postsynaptic GABA or glutamate responses” value ([3]; cultured mouse spinal cord neurons) was “without affecting”. For the same compound, the “effect on neuronal or glial uptake of [3H]-GABA” value (rat hippocampal slices) was “without affecting”, the “effect on dopaminergic and serotonergic neurotransmission” value [4] was “facilitates both dopaminergic and serotonergic neurotransmission” and the “doses at which many of the side effects are more frequent” value [5] was at least 300 mg per day.
